From patent US5766624A, “Liposomal defensins” (The Liposme Company, Inc., priority 1995, dated 1998)
Where no end group is shown, it is not given here.

Legend:
In vivo acute toxicity = experiment: In vivo acute toxicity; parameters: species or system Balb/c mice; settings: for Number of Animals Dead: tail vein
Protocol: Mice were also injected with saline and with empty liposomes.

[1] = Leakage of CAT1 probe from DSPC/Chol/DDAB liposomes (ESR)
Protocol: A solution of DSPC (51.6 mg), cholesterol (20.2 mg) and dimethyldioctadecyl ammonium bromide (DDAB; 8.23 mg) was dried in a round-bottom flask. The lipids were rehydrated with buffer (10 mM HEPES, 150 mM NaCl) containing 0.5 mM of the probe CAT1 so as to form a suspension of multilamellar liposomes. The suspension was heated at 65 deg. C. for 10 min and then washed twice in 10 ml of the HEPES buffer, with the final pellet comprising DSPC/Chol/DDAB multilamellar liposomes containing CAT1, being resuspended in HEPES buffer to a final volume of 2 ml. A standard phosphate assay (see Chen et al., Anal. Chem. 28:1956 (1956)) was performed to determine the amount of lipid remaining (34.12 mg).
Various amounts of this solution (see Table 2, below) were combined with an aliquot (100 μl) of the liposome suspension, the final volume of the samples being brought up to 0.2 ml with HEPES buffer. These samples were centrifuged, and aliquots of the supernatants were taken for ESR spectra determination (23 deg. C.) to measure probe leakage.

Aspergillus fumigatus = experiment: Treatment of Aspergillus fumigatus infections in mice; format: in vivo, Balb/c mice; settings: 2 mg/kg, given six hours after 2×10^7 A. fumigatus spores; 15-day period
From the text: FIG. 14. Therapeutic Efficacy of Free and Liposomal Indolicidin Against Aspergillus Infections in Mice. […] The animals' survival was monitored over a period of fifteen days. Percent survival (vertical axis) is plotted against time in days (horizontal axis).
Male Balb/c mice were each injected with 2×10^7 Aspergillus fumigatus spores by injection in the tail vein. After six hours, the mice were randomly divided into five groups of 10 mice each. […] The animals' survival was monitored over a 15-day period.

[2] = Right angle light scattering of aqueous indolicidin; format: physicochemical; settings: 10 mM HEPES, 150 mM NaCl, pH 7.5; light scattering 500 nm, 90 degrees
Protocol: FIG. 1. Right Angle Light Scattering of Aqueous Indolicidin. […] Samples were placed in fluorescence cuvettes and the scattering of light at 500 nm wavelengths (excitation wavelength) was measured in the fluorimeter at an angle of 90 degrees.
Samples were placed in fluorescence cuvettes and light scattering at 500 nm ([…] in the fluorimeter, at a 90 degree angle.

[3] = Leakage of CAT1 probe from DSPC/Chol liposomes (ESR); settings: for % Probe in Supernatant: CAT1, 23 deg. C
Protocol: A solution of DSPC (60 mg) and cholesterol (20 mg) was dried by rotary evaporation; the dried lipids were then rehydrated with 2 ml of buffer (10 mM HEPES, 150 mM NaCl), containing 0.5 mM of the probe CAT1 (4-trimethylammmonium-2,2,6,6-tetramethylpiperidine-1-oxyl-iodide) so as to form a suspension of multilamellar liposomes containing the probe. A suspension of these vesicles was then heated for 10 min. at 65 deg. C. The sample was washed four times with HEPES buffer and resuspended in buffer to a final volume of 2 ml. […] Various amounts of this solution (see Table 1, below) were combined with an aliquot (100 μl) of the liposome preparation, with buffer then being added to bring the final volume up to 0.2 ml. Samples were microfuged, and the supernatants transferred to ESR tubes. Spectra were taken at room temperature (23 deg. C.) to determine the concentration of the probe in the supernatant samples (see Perkins et al., Biochim. Biophys. Acta. 943:103 (1988)).
The data (see Table 1, below) indicates the percent of the probe found in the supernatant, and thereby, the percent leakage from the DSPC/Chol liposomes.

protein kinase C = settings: Charp et al., Biochem. Pharmacol. 37(5):951 (1988); cited from earlier work

With `CC[C@H](C)[C@H](N)C(=O)N[C@@H](CC(C)C)C(=O)N1CCC[C@H]1C(=O)N[C@@H](Cc1c[nH]c2ccccc12)C(=O)N[C@@H](CCCCN)C(=O)N[C@@H](Cc1c[nH]c2ccccc12)C(=O)N1CCC[C@H]1C(=O)N[C@@H](Cc1c[nH]c2ccccc12)C(=O)N[C@@H](Cc1c[nH]c2ccccc12)C(=O)N1CCC[C@H]1C(=O)N[C@@H](Cc1c[nH]c2ccccc12)C(=O)N[C@@H](CCCNC(=N)N)C(=O)N[C@@H](CCCNC(=N)N)C(N)=O` [indolicidin] the “Number of Animals Dead” value (In vivo acute toxicity; free indolicidin dose 0.4 mg/kg) was 0/5, the “Number of Animals Dead” value (In vivo acute toxicity; free indolicidin dose 1.2 mg/kg) was 1/5 and the “Number of Animals Dead” value (In vivo acute toxicity; free indolicidin dose 4.0 mg/kg) was 3/5. The “Number of Animals Dead” value (In vivo acute toxicity; free indolicidin dose 12.0 mg/kg) was 0/5, the LD50 (In vivo acute toxicity; male Balb/c mice, tail vein injection) was 3 mg/kg and the “% Probe in Supernatant” value ([1]; 0.48 mole % indolicidin (3.20 μl stock), CAT1, 23 deg. C) was 8.00%. For the same compound, the “% Probe in Supernatant” value ([1]; 0.93 mole % indolicidin (6.30 μl stock)) was 8.00%, the “% Probe in Supernatant” value ([1]; 1.84 mole % indolicidin (12.50 μl stock)) was 9.78% and the “% Probe in Supernatant” value ([1]; 3.61 mole % indolicidin (25.00 μl stock)) was 10.67%. The “% Probe in Supernatant” value ([1]; 6.99 mole % indolicidin (50.00 μl stock)) was 9.78%, the “% Probe in Supernatant” value ([1]; 10.09 mole % indolicidin (75.00 μl stock), corrected for any liposomes in the supernatant) was 0% and the “% Probe in Supernatant” value ([1]; 13.04 mole % indolicidin (100.00 μl stock), corrected for any liposomes in the supernatant) was 0%. For the same compound, the “survival times of infected mice” value (Aspergillus fumigatus) was “slight increase in survival times”, the “concentration at which indolicidin self-associates in solution” value [2] was at least 30000 ng/mL and the “% Leakage of Probe” value ([3]; 0.42 mole % indolicidin) was 1.75%. For the same compound, the “% Probe in Supernatant” value ([3]; 0.42 mole % indolicidin (3.20 μl stock)) was 6.14%, the “% Leakage of Probe” value ([3]; 0.82 mole % indolicidin) was 1.75% and the “% Probe in Supernatant” value ([3]; 0.82 mole % indolicidin (6.30 μl stock)) was 6.14%. The “% Leakage of Probe” value ([3]; 1.61 mole % indolicidin) was 0.87%, the “% Probe in Supernatant” value ([3]; 1.61 mole % indolicidin (12.50 μl stock)) was 5.26% and the “% Leakage of Probe” value ([3]; 3.16 mole % indolicidin) was 1.75%. The “% Probe in Supernatant” value ([3]; 3.16 mole % indolicidin (25.00 μl stock)) was 6.14%, the “% Leakage of Probe” value ([3]; 6.16 mole % indolicidin) was 2.63% and the “% Probe in Supernatant” value ([3]; 6.16 mole % indolicidin (50.00 μl stock)) was 7.02%. For the same compound, the “% Leakage of Probe” value ([3]; 8.93 mole % indolicidin) was 1.75%, the “% Probe in Supernatant” value ([3]; 8.93 mole % indolicidin (75.00 μl stock)) was 6.14% and the “effect of increasing indolicidin concentration on probe leakage” value ([3]; DSPC/Chol liposomes, 0.42-8.93 mole % indolicidin) was “did not significantly increase probe leakage”.

In the case of “HNP-1: human neutrophil protein 1, a prototypical mammalian defensin”, the “protein kinase C activity” value (protein kinase C) is listed as “inhibited”.

For “HNP-2: human neutrophil protein 2, a prototypical mammalian defensin (CYCRIPACIAGERRYGTCIYQGRLWAFCC; ends and bridges not checked; cysteine pairing not given here; UniProt P59665 66-94, looked up)”, the “protein kinase C activity” value (protein kinase C) is listed as “inhibited”.

For “HNP-3: human neutrophil protein 3, a prototypical mammalian defensin”, the “protein kinase C activity” value (protein kinase C) is listed as “inhibited”.
